Data taken from patent US20260347353A1, “INDOLIZINE DERIVATIVES FOR TREATING CANCER” (Antares Therapeutics, Inc., priority 2022, published 2026).

How the values were obtained:
p53 Y220C = p53 Y220C (Homo sapiens, UniProt P04637, Y220C); assay: Luciferase Reporter Assay, p53 Y220C (NCIH1299 cells with inducible p53 Y220C and p53 response element-luciferase); format: cell-based; settings: 6 hour compound treatment, read-out: Luc P53 Y220C AC50
Method: Luciferase reporter (Luc) driven by p53 response element (LTV-p53-Luc (SKU #: LTLR007); G&P Biosciences) and inducible p53 Y220C construct (Tet-One inducible expression system; Takara) were stably expressed in NCIH1299 cells by lentiviral transduction. The cells were then used for p53 reporter assay. 5,000 cells were seeded in each well of 384 plate and cultured in 0.5 ug/mL doxycycline (D3072; Sigma) containing medium for 24 hours before compound treatment. After 6 hour of compound treatment, equal volume of One-Glo reagent (E6110; Promega) was added to each well and the plate was incubated for 5 minutes with shaking at room temperature. The luciferase activity was immediately measured with PheraStar microplate reader. Luciferase activity was stimulated by 10 uM of a tool compound as positive control and AC50 was calculated.

NUGC3 cells (p53 Y220C) = assay: Cell Proliferation Assay (CellTiter-Glo), NUGC3 p53 Y220C; format: cell-based; settings: Homo sapiens, NUGC-3, 120 h, 5 days, read-out: CTG NUGC3 P53 Y220C IC50
Method: (§1) Inducible p53 Y220C and R273H constructs (Tet-One inducible expression system; Takara) were stably expressed in NCIH1299 cells by lentiviral transduction. NUGC3, A549, BxPC3, T3M4, HuH7, HCC2935, MFE296, NCIH1299, NCIH1299-inducible p53 Y220C, and NCIH1299-inducible p53 R273H cell lines were used for cell proliferation assay. 250-500 cells were seeded in each well of 384 plate and then compounds were dispensed into each well using Echo or Tecan. After 5 days of incubation, equal volume of CellTiter-Glo reagent (G7570; Promega) was added into each well and the plate was incubated at room temperature for 10 minutes with shaking. The luminescent signal was measured by PheraStar microplate reader and IC50 was calculated.

[1] = system: NCIH1299-inducible p53 Y220C cells; assay: Cell Proliferation Assay (CellTiter-Glo), NCIH1299-inducible p53 Y220C; format: cell-based; settings: Homo sapiens, NCI-H1299, 120 h, 5 days, read-out: CTG H1299 P53 Y220C IC50
Method: as §1

[2] = biological target: T1, p53 Y220C mutant protein (amino acid residues 94-293) (Homo sapiens, UniProt P04637, Y220C); assay: Surface Plasmon Resonance (SPR) assay, p53 Y220C Kd_kinetic; settings: multi-cycle kinetics, 16 or 20 °C, pH 7.5, 1:1 binding model
T1 construct: p53 Y220C mutant protein (amino acid residues 94-293)
T1 sequence (P04637 94-293, stated change not applied): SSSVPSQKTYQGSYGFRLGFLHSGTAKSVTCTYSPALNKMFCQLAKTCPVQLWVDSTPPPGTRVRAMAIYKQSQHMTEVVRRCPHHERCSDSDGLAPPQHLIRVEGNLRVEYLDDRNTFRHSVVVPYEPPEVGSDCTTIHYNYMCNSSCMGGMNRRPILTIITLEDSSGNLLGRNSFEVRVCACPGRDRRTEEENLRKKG
Method: SPR experiments are performed on a Biacore 8K instrument. […] Compounds are 2-fold, 7-point serial diluted; the top concentration varies depending on the potency. Compound binding affinities are measured in the multi-cycle kinetics mode, at 30 μL/min flow rate with 60 seconds association time and 120 seconds dissociation time. The running buffer contains 50 mM Tris, pH 7.5, 100 mM NaCl, 1 mM DTT, 0.01% Brij35, 0.05% Tween-20 and 1% DMSO. The assay temperature is maintained at 16 or 20 °C and data are fit into the 1:1 binding model using the Biacore Insight Evaluation software.

AC50 (p53 Y220C) | Kd [2] | SMILES | IC50 (NUGC3 cells (p53 Y220C)) | IC50 [1]
≥ 3000 nM | 100 to 1000 nM | CN1CC[C@@H](Nc2cccn3c(SC(F)(F)F)c(-c4nsc(CNC(=O)c5cnn(C(C)(C)C)c5)n4)cc23)[C@@H](F)C1 [Example 5, 1-tert-butyl-N-{[3-(8-{[(3S,4R)-3-fluoro-1-methylpiperidin-4-yl]amino}-3-[(trifluoromethyl)sulfanyl]indolizin-2-yl)-1,2,4-thiadiazol-5-yl]methyl}pyrazole-4-carboxamide] | ≥ 3000 nM | ≥ 3000 nM
≥ 3000 nM | ≥ 1000 nM | CN1CC[C@@H](Nc2cccn3c(SC(F)(F)F)c(-c4nsc(CNC(=O)c5ccn(C(C)(C)C)c5)n4)cc23)[C@@H](F)C1 [Example 6, 1-tert-butyl-N-{[3-(8-{[(3S,4R)-3-fluoro-1-methylpiperidin-4-yl]amino}-3-[(trifluoromethyl)sulfanyl]indolizin-2-yl)-1,2,4-thiadiazol-5-yl]methyl}pyrrole-3-carboxamide] | ≥ 3000 nM | ≥ 3000 nM
< 750 nM | < 10 nM | CN1CC[C@@H](Nc2cccn3c(SC(F)(F)F)c(-c4noc(CNC(=O)c5ccn(C(C)(C)C)c5)n4)cc23)[C@@H](F)C1 [Example 7, 1-tert-butyl-N-{[3-(8-{[(3S,4R)-3-fluoro-1-methylpiperidin-4-yl]amino}-3-[(trifluoromethyl)sulfanyl]indolizin-2-yl)-1,2,4-oxadiazol-5-yl]methyl}pyrrole-3-carboxamide] | < 750 nM | < 750 nM
1500 to 3000 nM | < 10 nM | CN1CC[C@@H](Nc2cccn3c(SC(F)(F)F)c(-c4noc(CNC(=O)C5CC(O)C5)n4)cc23)[C@@H](F)C1 (stereo partly drawn) [Example 8, (1r,3r)-N-{[3-(8-{[(3S,4R)-3-fluoro-1-methylpiperidin-4-yl]amino}-3-[(trifluoromethyl)sulfanyl]indolizin-2-yl)-1,2,4-oxadiazol-5-yl]methyl}-3-hydroxycyclobutane-1-carboxamide] | 1500 to 3000 nM | 750 to 1500 nM
≥ 3000 nM | 100 to 1000 nM | COc1ccc2n[nH]c(CC(=O)NCc3nc(-c4cc5c(N[C@@H]6CCN(C)C[C@@H]6F)cccn5c4SC(F)(F)F)no3)c2c1 [Example 9, N-{[3-(8-{[(3S,4R)-3-fluoro-1-methylpiperidin-4-yl]amino}-3-[(trifluoromethyl)sulfanyl]indolizin-2-yl)-1,2,4-oxadiazol-5-yl]methyl}-2-(5-methoxy-1H-indazol-3-yl)acetamide] | 1500 to 3000 nM | 1500 to 3000 nM
750 to 1500 nM | < 10 nM | CN1CC[C@@H](Nc2cccn3c(SC(F)(F)F)c(-c4noc(CNC(=O)[C@@H]5COCCO5)n4)cc23)[C@@H](F)C1 [Example 11, (2S)—N-{[3-(8-{[(3S,4R)-3-fluoro-1-methylpiperidin-4-yl]amino}-3-[(trifluoromethyl)sulfanyl]indolizin-2-yl)-1,2,4-oxadiazol-5-yl]methyl}-1,4-dioxane-2-carboxamide] | 750 to 1500 nM | 750 to 1500 nM
< 750 nM | < 10 nM | CN1CC[C@@H](Nc2cccn3c(SC(F)(F)F)c(-c4noc(CNC(=O)c5cnc(N(C)C)o5)n4)cc23)[C@@H](F)C1 [Example 12, 2-(dimethylamino)-N-{[3-(8-{[(3S,4R)-3-fluoro-1-methylpiperidin-4-yl]amino}-3-[(trifluoromethyl)sulfanyl]indolizin-2-yl)-1,2,4-oxadiazol-5-yl]methyl}-1,3-oxazole-5-carboxamide] | < 750 nM | < 750 nM
< 750 nM | < 10 nM | CN1CC[C@@H](Nc2cccn3c(SC(F)(F)F)c(-c4noc(CNC(=O)c5cnc(C(C)(C)C)o5)n4)cc23)[C@@H](F)C1 [Example 13, 2-tert-butyl-N-{[3-(8-{[(3S,4R)-3-fluoro-1-methylpiperidin-4-yl]amino}-3-[(trifluoromethyl)sulfanyl]indolizin-2-yl)-1,2,4-oxadiazol-5-yl]methyl}-1,3-oxazole-5-carboxamide] | < 750 nM | < 750 nM
1500 to 3000 nM | 10 to 100 nM | Cc1c(C(=O)NCc2nc(-c3cc4c(N[C@@H]5CCN(C)C[C@@H]5F)cccn4c3SC(F)(F)F)no2)sc2nc[nH]c(=O)c12 [Example 14, N-{[3-(8-{[(3S,4R)-3-fluoro-1-methylpiperidin-4-yl]amino}-3-[(trifluoromethyl)sulfanyl]indolizin-2-yl)-1,2,4-oxadiazol-5-yl]methyl}-5-methyl-4-oxo-3H-thieno[2,3-d]pyrimidine-6-carboxamide] | 750 to 1500 nM | 750 to 1500 nM
< 750 nM | < 10 nM | CN1CC[C@@H](Nc2cccn3c(SC(F)(F)F)c(-c4noc(CNC(=O)c5ccc6c(c5)C(C)(C)C(=O)N6)n4)cc23)[C@@H](F)C1 [Example 15, N-{[3-(8-{[(3S,4R)-3-fluoro-1-methylpiperidin-4-yl]amino}-3-[(trifluoromethyl)sulfanyl]indolizin-2-yl)-1,2,4-oxadiazol-5-yl]methyl}-3,3-dimethyl-2-oxo-1H-indole-5-carboxamide] | < 750 nM | < 750 nM
750 to 1500 nM | < 10 nM | CN1CC[C@@H](Nc2cccn3c(SC(F)(F)F)c(-c4noc(CNC(=O)c5ccc6c(c5)NC(=O)C6)n4)cc23)[C@@H](F)C1 [Example 16, N-{[3-(8-{[(3S,4R)-3-fluoro-1-methylpiperidin-4-yl]amino}-3-[(trifluoromethyl)sulfanyl]indolizin-2-yl)-1,2,4-oxadiazol-5-yl]methyl}-2-oxo-1,3-dihydroindole-6-carboxamide] | < 750 nM | 750 to 1500 nM
< 750 nM | < 10 nM | CN1CC[C@@H](Nc2cccn3c(SC(F)(F)F)c(-c4noc(CNC(=O)c5cccc6c5NC(=O)C6)n4)cc23)[C@@H](F)C1 [Example 17, N-{[3-(8-{[(3S,4R)-3-fluoro-1-methylpiperidin-4-yl]amino}-3-[(trifluoromethyl)sulfanyl]indolizin-2-yl)-1,2,4-oxadiazol-5-yl]methyl}-2-oxo-1,3-dihydroindole-7-carboxamide] | < 750 nM | 750 to 1500 nM
750 to 1500 nM | < 10 nM | CN1CC[C@@H](Nc2cccn3c(SC(F)(F)F)c(-c4noc(CNC(=O)c5ccc6c(c5)CC(=O)N6)n4)cc23)[C@@H](F)C1 [Example 18, N-{[3-(8-{[(3S,4R)-3-fluoro-1-methylpiperidin-4-yl]amino}-3-[(trifluoromethyl)sulfanyl]indolizin-2-yl)-1,2,4-oxadiazol-5-yl]methyl}-2-oxo-1,3-dihydroindole-5-carboxamide] | < 750 nM | 750 to 1500 nM
750 to 1500 nM | 10 to 100 nM | CN1CC[C@@H](Nc2cccn3c(SC(F)(F)F)c(-c4noc(CNC(=O)c5ccc6[nH]cc(C#N)c6c5)n4)cc23)[C@@H](F)C1 [Example 19, 3-cyano-N-{[3-(8-{[(3S,4R)-3-fluoro-1-methylpiperidin-4-yl]amino}-3-[(trifluoromethyl)sulfanyl]indolizin-2-yl)-1,2,4-oxadiazol-5-yl]methyl}-1H-indole-5-carboxamide] | < 750 nM | < 750 nM
< 750 nM | < 10 nM | CN1CC[C@@H](Nc2cccn3c(SC(F)(F)F)c(-c4noc(CNC(=O)c5csc(N6CCOCC6)n5)n4)cc23)[C@@H](F)C1 [Example 20, N-{[3-(8-{[(3S,4R)-3-fluoro-1-methylpiperidin-4-yl]amino}-3-[(trifluoromethyl)sulfanyl]indolizin-2-yl)-1,2,4-oxadiazol-5-yl]methyl}-2-(morpholin-4-yl)-1,3-thiazole-4-carboxamide] | < 750 nM | < 750 nM
1500 to 3000 nM | 100 to 1000 nM | COc1ccc2[nH]nc(C(=O)NCc3nc(-c4cc5c(N[C@@H]6CCN(C)C[C@@H]6F)cccn5c4SC(F)(F)F)no3)c2c1 [Example 21, N-{[3-(8-{[(3S,4R)-3-fluoro-1-methylpiperidin-4-yl]amino}-3-[(trifluoromethyl)sulfanyl]indolizin-2-yl)-1,2,4-oxadiazol-5-yl]methyl}-5-methoxy-1H-indazole-3-carboxamide] | 1500 to 3000 nM | 1500 to 3000 nM
